Measurements: patent publication US11414416B1, “Compounds and uses thereof” (Foghorn Therapeutics Inc., priority 2019, dated 2022)

Assays:
[1] = molecular target: Nanoluciferase-BRD9 fusion protein (Homo sapiens (Human), UniProt Q9H8M2); experiment: SYO1 BRD9 NanoLuc degradation assay; type: cell-based; conditions: Table 5A, SYO-1 cells expressing 3×FLAG-NLuc-BRD9, 6 hours; for DC50: read-out: SYO1 BRD9-NanoLuc degradation IC50
How it was run: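 Degradation was read as loss of nanoluciferase signal (Nano-Glo) after 6 h compound exposure in a stable SYO-1 line carrying 3×FLAG-NLuc-BRD9 (8000 cells/well). Normalised between DMSO (high) and a 1 μM known BRD9 degrader (low).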

BRD9 bromodomain = BRD9 bromodomain (Homo sapiens (Human), UniProt Q9H8M2); experiment: BRD9 bromodomain TR-FRET competition binding assay; conditions: Table 4; competition with biotinylated ligand, 3 nM Flag-BRD9, 90 minutes
How it was run: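 TEV-cleaved Flag-BRD9 (P133-K239, 3 nM) competed against 3.75 nM biotinylated ligand, with 7.5 nM APC-streptavidin and 0.2 nM Eu-W1024 anti-FLAG, in HEPES pH 7.4, NaCl, TCEP, Tween-20, BSA. Compounds were serially diluted 3-fold; after 90 min at room temperature the 665/615 nm emission ratio was read.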

Sequence of Nanoluciferase-BRD9 fusion protein (Q9H8M2 whole entry, the tested form may be a part): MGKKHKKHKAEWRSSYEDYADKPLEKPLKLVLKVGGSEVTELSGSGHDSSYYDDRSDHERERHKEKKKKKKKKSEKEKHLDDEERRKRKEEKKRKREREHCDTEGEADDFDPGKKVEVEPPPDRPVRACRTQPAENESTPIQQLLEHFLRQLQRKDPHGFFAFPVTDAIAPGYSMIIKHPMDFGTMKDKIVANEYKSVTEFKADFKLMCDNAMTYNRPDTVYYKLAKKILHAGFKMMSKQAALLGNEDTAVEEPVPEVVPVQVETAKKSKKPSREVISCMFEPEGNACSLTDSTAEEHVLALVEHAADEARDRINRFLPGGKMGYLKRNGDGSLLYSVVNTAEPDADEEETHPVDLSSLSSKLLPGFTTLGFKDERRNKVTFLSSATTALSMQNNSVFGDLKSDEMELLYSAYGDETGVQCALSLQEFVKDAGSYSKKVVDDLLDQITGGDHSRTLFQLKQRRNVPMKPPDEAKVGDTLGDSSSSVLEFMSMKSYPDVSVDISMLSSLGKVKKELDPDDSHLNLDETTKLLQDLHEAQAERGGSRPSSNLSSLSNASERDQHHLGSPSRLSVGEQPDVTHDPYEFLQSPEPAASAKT
Sequence of BRD9 bromodomain (Q9H8M2 133-239): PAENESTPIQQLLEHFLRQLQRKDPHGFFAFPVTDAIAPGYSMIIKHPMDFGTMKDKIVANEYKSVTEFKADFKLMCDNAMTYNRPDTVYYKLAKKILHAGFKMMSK

SMILES: COc1cc(-c2cn(C)c(=O)c3cnccc23)cc(OC)c1CN1CCC2(CC1)CN(C(=O)CCCOc1cccc3c1C(=O)N(C1CCC(=O)NC1=O)C3=O)CCO2 (centres unmarked) [Compound D39, 4-[4-(9-[[2,6-dimethoxy-4-(2-methyl-1-oxo-2,7-naphthyridin-4-yl)phenyl]methyl]-1-oxa-4,9-diazaspiro[5.5]undecan-4-yl)-4-oxobutoxy]-2-(2,6-dioxopiperidin-3-yl)isoindole-1,3-dione]
- IC50 [1]: < 10 nM
- IC50 (BRD9 bromodomain): < 10 nM

SMILES: COc1cc(-c2cn(C)c(=O)c3cnccc23)cc(OC)c1CN1CCN(C(=O)COc2cccc3c2C(=O)N(C2CCC(=O)NC2=O)C3=O)CC1 (centres unmarked) [Compound D37, 4-(2-(4-(2,6-dimethoxy-4-(2-methyl-1-oxo-1,2-dihydro-2,7-naphthyridin-4-yl)benzyl)piperazin-1-yl)-2-oxoethoxy)-2-(2,6-dioxopiperidin-3-yl)isoindoline-1,3-dione formic acid]
- IC50 [1]: < 10 nM
- IC50 (BRD9 bromodomain): < 10 nM

SMILES: COc1cc(-c2cn(C)c(=O)c3cnccc23)cc(OC)c1CN(C)C1CC2CN(C(=O)CCOCCOc3cccc4c3C(=O)N(C3CCC(=O)NC3=O)C4=O)CC2C1 (centres unmarked) [Compound D160]
- DC50 [1]: 10 to 100 nM
- IC50 (BRD9 bromodomain): < 10 nM

SMILES: COc1cc(-c2cn(C)c(=O)c3cnccc23)cc(OC)c1CN(C)CC1CC2(CCN(C(=O)CCOCCOc3cccc4c3C(=O)N(C3CCC(=O)NC3=O)C4=O)CC2)C1 (centres unmarked) [Compound D165]
- IC50 [1]: 10 to 100 nM
- IC50 (BRD9 bromodomain): 10 to 100 nM

SMILES: COc1cc(-c2cn(C)c(=O)c3cnccc23)cc(OC)c1CN1CC(C)(C(=O)NCCCCCCCCNc2cccc3c2C(=O)N(C2CCC(=O)NC2=O)C3=O)C1 (centres unmarked) [Compound D13, 1-(2,6-dimethoxy-4-(2-methyl-1-oxo-1,2-dihydro-2,7-naphthyridin-4-yl)benzyl)-N-(8-((2-(2,6-dioxopiperidin-3-yl)-1,3-dioxoisoindolin-4-yl)amino)octyl)-3-methylazetidine-3-carboxamide]
- DC50 [1]: < 10 nM
- IC50 (BRD9 bromodomain): < 10 nM

SMILES: COc1cc(-c2cn(C)c(=O)c3cnccc23)cc(OC)c1CN(C)CC12CC(NC(=O)CCCCOc3cccc4c3C(=O)N(C3CCC(=O)NC3=O)C4=O)(C1)C2 (centres unmarked) [Compound D69, N-[3-[([[2,6-dimethoxy-4-(2-methyl-1-oxo-2,7-naphthyridin-4-yl)phenyl]methyl](methyl)amino)methyl]bicyclo[1.1.1]pentan-1-yl]-5-[[2-(2,6-dioxopiperidin-3-yl)-1,3-dioxoisoindol-4-yl]oxy]pentanamide]
- IC50 [1]: < 10 nM
- IC50 (BRD9 bromodomain): < 10 nM

SMILES: COc1cc(-c2cn(C)c(=O)c3cnccc23)cc(OC)c1CN1CCC2CCN(C(=O)CCOCCOc3ccc4c(c3)C(=O)N(C3CCC(=O)NC3=O)C4=O)CC21 (centres unmarked) [Compound D123]
- IC50 [1]: < 10 nM
- IC50 (BRD9 bromodomain): < 10 nM

SMILES: COc1cc(-c2cn(C)c(=O)c3cnccc23)cc(OC)c1CN(C)CC1CC2CN(C(=O)CCOCCOc3ccc4c(c3)C(=O)N(C3CCC(=O)NC3=O)C4=O)C[C@@H]2C1 (some centres unmarked) [Compound D176]
- IC50 [1]: < 10 nM
- IC50 (BRD9 bromodomain): < 10 nM

SMILES: COc1cc(-c2cn(C)c(=O)c3cnccc23)cc(OC)c1CN1CCN(C(=O)C2CC2CNC(=O)COc2cccc3c2C(=O)N(C2CCC(=O)NC2=O)C3=O)CC1 (centres unmarked) [Compound D65, N-[[2-(4-[[2,6-dimethoxy-4-(2-methyl-1-oxo-2,7-naphthyridin-4-yl)phenyl]methyl]piperazine-1-carbonyl)cyclopropyl]methyl]-2-[[2-(2,6-dioxopiperidin-3-yl)-1,3-dioxoisoindol-4-yl]oxy]acetamide]
- IC50 [1]: 100 to 1000 nM
- IC50 (BRD9 bromodomain): 10 to 100 nM

SMILES: COc1cc(-c2cn(C)c(=O)c3cnccc23)cc(OC)c1CN1CCC(OC2CCN(C(=O)CCOCCOc3cccc4c3C(=O)N(C3CCC(=O)NC3=O)C4=O)CC2)CC1 (centres unmarked) [Compound D97]
- DC50 [1]: 10 to 100 nM
- IC50 (BRD9 bromodomain): < 10 nM

SMILES: COc1cc(-c2cn(C)c(=O)c3cnccc23)cc(OC)c1CN1CC(S(=O)(=O)NCCCCCNc2ccc3c(c2)C(=O)N(C2CCC(=O)NC2=O)C3=O)C1 (centres unmarked) [Compound D23, 1-[[2,6-dimethoxy-4-(2-methyl-1-oxo-1,2-dihydro-2,7-naphthyridin-4-yl)phenyl]methyl]-N-(5-[[2-(2,6-dioxopiperidin-3-yl)-1,3-dioxo-2,3-dihydro-1H-isoindol-5-yl]amino]pentyl) azetidine-3-sulfonamide formic acid]
- IC50 [1]: < 10 nM
- IC50 (BRD9 bromodomain): < 10 nM

SMILES: COc1cc(-c2cn(C)c(=O)c3cnccc23)cc(OC)c1CN1CC[C@@H]1C(=O)NCCCCCCCCNc1cccc2c1C(=O)N(C1CCC(=O)NC1=O)C2=O (some centres unmarked) [Compound D10]
- IC50 [1]: < 10 nM
- IC50 (BRD9 bromodomain): 10 to 100 nM

SMILES: COc1cc(-c2cn(C)c(=O)c3cnccc23)cc(OC)c1CN1CCC(C2CCN(C(=O)CCOCCOc3cccc4c3C(=O)N(C3CCC(=O)NC3=O)C4=O)C2)CC1 (centres unmarked) [Compound D96]
- DC50 [1]: 10 to 100 nM
- IC50 (BRD9 bromodomain): < 10 nM

SMILES: COc1cc(-c2cn(C)c(=O)c3cnccc23)cc(OC)c1CN(C)CCCN1CCC(Oc2ccc3c(c2)C(=O)N(C2CCC(=O)NC2=O)C3=O)CC1 (centres unmarked) [Compound D52, 5-((1-(3-((2,6-dimethoxy-4-(2-methyl-1-oxo-1,2-dihydro-2,7-naphthyridin-4-yl)benzyl) (methyl)amino)propyl)piperidin-4-yl)oxy)-2-(2,6-dioxopiperidin-3-yl)isoindoline-1,3-dione formic acid]
- IC50 [1]: < 10 nM
- IC50 (BRD9 bromodomain): < 10 nM

SMILES: COc1cc(-c2cn(C)c(=O)c3cnccc23)cc(OC)c1CN(C)CC1CC2(CCN(C(=O)CCOCCOc3cccc4c3C(=O)N(C3CCC(=O)NC3=O)C4=O)CC2)O1 (centres unmarked) [Compound D159]
- DC50 [1]: 10 to 100 nM
- IC50 (BRD9 bromodomain): < 10 nM

SMILES: COc1cc(-c2cn(C)c(=O)c3cnccc23)cc(OC)c1CN1CC(C(=O)NCCCCCNc2cccc3c2C(=O)N(C2CCC(=O)NC2=O)C3=O)C1 (centres unmarked) [Compound D3, 1-[[2,6-dimethoxy-4-(2-methyl-1-oxo-1,2-dihydro-2,7-naphthyridin-4-yl)phenyl]methyl]-N-(5-[[2-(2,6-dioxopiperidin-3-yl)-1,3-dioxo-2,3-dihydro-1H-isoindol-4-yl]amino]pentyl) azetidine-3-carboxamide]
- IC50 [1]: < 10 nM
- IC50 (BRD9 bromodomain): < 10 nM

SMILES: COc1cc(-c2cn(C)c(=O)c3cnccc23)cc(OC)c1CN(C)CC1CC12CCN(C(=O)CCOCCOc1cccc3c1C(=O)N(C1CCC(=O)NC1=O)C3=O)CC2 (centres unmarked) [Compound D163]
- DC50 [1]: 10 to 100 nM
- IC50 (BRD9 bromodomain): < 10 nM

SMILES: COc1cc(-c2cn(C)c(=O)c3cnccc23)cc(OC)c1CN1CCC2(CC1)CN(C(=O)COc1cccc3c1C(=O)N(C1CCC(=O)NC1=O)C3=O)CCO2 (centres unmarked) [Compound D41, 4-[2-(9-[[2,6-dimethoxy-4-(2-methyl-1-oxo-2,7-naphthyridin-4-yl)phenyl]methyl]-1-oxa-4,9-diazaspiro[5.5]undecan-4-yl)-2-oxoethoxy]-2-(2,6-dioxopiperidin-3-yl)isoindole-1,3-dione formic acid]
- DC50 [1]: 10 to 100 nM
- IC50 (BRD9 bromodomain): < 10 nM

SMILES: COc1cc(-c2cn(C)c(=O)c3cnccc23)cc(OC)c1CN(C)C12CC(C(=O)NCCCCCNc3cccc4c3C(=O)N(C3CCC(=O)NC3=O)C4=O)(C1)C2 (centres unmarked) [Compound D57, 3-([[2,6-dimethoxy-4-(2-methyl-1-oxo-2,7-naphthyridin-4-yl)phenyl]methyl](methyl)amino)-N-(5-[[2-(2,6-dioxopiperidin-3-yl)-1,3-dioxoisoindol-4-yl]amino]pentyl)bicyclo[1.1.1]pentane-1-carboxamide formic acid]
- IC50 [1]: < 10 nM
- IC50 (BRD9 bromodomain): 10 to 100 nM

SMILES: COc1cc(-c2cn(C)c(=O)c3cnccc23)cc(OC)c1CN1CCC2(C[C@@H]2NC(=O)CCOCCOc2cccc3c2C(=O)N(C2CCC(=O)NC2=O)C3=O)C1 (some centres unmarked) [Compound D112]
- DC50 [1]: 100 to 1000 nM
- IC50 (BRD9 bromodomain): < 10 nM

SMILES: COc1cc(-c2cn(C)c(=O)c3cnccc23)cc(OC)c1CN1CCN(C(=O)CCCOc2cccc3c2C(=O)N(C2CCC(=O)NC2=O)C3=O)CC1 (centres unmarked) [Compound D33, 4-(4-(4-(2,6-dimethoxy-4-(2-methyl-1-oxo-1,2-dihydro-2,7-naphthyridin-4-yl)benzyl)piperazin-1-yl)-4-oxobutoxy)-2-(2,6-dioxopiperidin-3-yl)isoindoline-1,3-dione]
- IC50 [1]: < 10 nM
- IC50 (BRD9 bromodomain): < 10 nM

SMILES: COc1cc(-c2cn(C)c(=O)c3cnccc23)cc(OC)c1CN1CCC2(C1)CN(C(=O)CCOCCOc1cccc3c1C(=O)N(C1CCC(=O)NC1=O)C3=O)C2 (centres unmarked) [Compound D87]
- DC50 [1]: 10 to 100 nM
- IC50 (BRD9 bromodomain): < 10 nM

SMILES: COc1cc(-c2cn(C)c(=O)c3cnccc23)cc(OC)c1CN(C)CC(=O)NCCCCN1CCOC2(CCN(c3ccc4c(c3)C(=O)N(C3CCC(=O)NC3=O)C4=O)CC2)C1 (centres unmarked) [Compound D73, 2-([[2,6-dimethoxy-4-(2-methyl-1-oxo-2,7-naphthyridin-4-yl)phenyl]methyl](methyl)amino)-N-(4-[9-[2-(2,6-dioxopiperidin-3-yl)-1,3-dioxoisoindol-5-yl]-1-oxa-4,9-diazaspiro[5.5]undecan-4-yl]butyl)acetamide formic acid]
- IC50 [1]: < 10 nM
- IC50 (BRD9 bromodomain): 10 to 100 nM

SMILES: COc1cc(-c2cn(C)c(=O)c3cnccc23)cc(OC)c1CN1CC2C1CCN2C(=O)CCOCCOc1cccc2c1C(=O)N(C1CCC(=O)NC1=O)C2=O (centres unmarked) [Compound D113]
- IC50 [1]: < 10 nM
- IC50 (BRD9 bromodomain): < 10 nM

SMILES: COc1cc(-c2cn(C)c(=O)c3cnccc23)cc(OC)c1CN1CCC2(CC1)CN(C(=O)COc1ccc3c(c1)C(=O)N(C1CCC(=O)NC1=O)C3=O)CCO2 (centres unmarked) [Compound D64, 5-[2-(9-[[2,6-dimethoxy-4-(2-methyl-1-oxo-2,7-naphthyridin-4-yl)phenyl]methyl]-1-oxa-4,9-diazaspiro[5.5]undecan-4-yl)-2-oxoethoxy]-2-(2,6-dioxopiperidin-3-yl)isoindole-1,3-dione formic acid]
- IC50 [1]: 100 to 1000 nM
- IC50 (BRD9 bromodomain): 10 to 100 nM
